Like-named read-outs stand apart in the source and are kept apart here.
Columns and labels:
Aedes albopictus [1] = test: Protection time at 0.17 mg/cm2, human-bait technique; format: in vivo; details: for Average PT >95% (% coefficient of variation) / Estimated 100% PT (complete protection time, mean±SE): at the dose of 0.17mg/cm2; for repellent activity, in words: against A. albopictus; for pest or weed control at 0.17 mg/cm2, 0.17 mg/cm2: Aedes albopictus, topical, read-out: Protection time PE%; for Estimated 100% PT (complete protection time, mean±SE): Kaplan–Meier estimate; for Protection time (95% protection): dose of 0.17 mg/cm^2, tests ended after 8 h
Description: To evaluate the protection time of derivatives, the PE % was measured with 100 μL of a 5% ethanol solution, corresponding to 0.17 mg/cm^2 of exposed skin, under the same laboratory conditions. Mosquito-exposed skin was treated with 100 μL of ethanol, as the negative hand control. For each volunteer (up to 8), the test was performed every hour, up to 8 h from the application. The protection time of DEET and Icaridin was measured under the same conditions. Since these trials were run in parallel with those aimed to profile the cytotoxicity of the compounds (paragraph 2.6), we interrupted the experiments for those compounds showing to have higher cytotoxicity than Icaridin and DEET as soon as the results were available. For this reason, the number of volunteers differs among the compounds.
The average time until protection which was higher than 95% protection time was considered for each compound. Moreover, for the compounds tested on at least three volunteers, the complete (100%) protection time was also estimated (SPSS 28.01.0) using the Kaplan–Meier survivor function procedure.[22]

Aedes albopictus [2] = test: Effective dose / protection efficacy, human-bait technique; format: in vivo
Description: The repellence of DEET, Icaridin (both supplied by Istituto Biochimico VEBI s.r.l.), acetals, and the synthesized hydroxyacetals was evaluated againstAedes albopictususing the human-bait technique (to simulate the condition of human skin on which repellents will be applied).[22]A. albopictuswas reared and tested at 26 ± 2 °C, ≥60 ± 10% relative humidity (RH), and at 14:10 h light/dark photoperiod, within Plexiglas cylindrical laboratory cages (35 cm diameter, 60 cm length) with one end closed by a net. During the tests, cages contained ≈150 nulliparous, 4–7 day-old, nonblood-fed females. For each compound to be tested, up to six volunteers participated in the trial.
The study was approved by the Regional Ethics Committee for Clinical Trials of Tuscany Region with the registered number 20383. Volunteers agreed to take part in the experiments following informed consent; only volunteers non-allergic to mosquito bites participated in the trials. On the day of the bioassay, they had no contact with lotions, perfumes, oils, or perfumed soaps. They wore latex surgical gloves, in which a dorsal square area of 30 cm^2 was cut open. Mosquito-exposed skin was treated with 50 μL of ethanol, as the negative hand control. The other hand was treated with 50 μL of the tested compounds in ethanol solution (dosages corresponding to 0.081, 0.17, 0.33, 0.5, 0.83, 1.7, 8.3, 16.7, and 83.3 μg/cm^2). Both hands were presented in the same test cage. The number of probing mosquitoes in a 3 min exposure period was recorded. During each test, the control and the treated hand were presented interchanged to verify the mosquitoes’ readiness to bite. Trials were considered valid only if at least 30 mosquitoes performed probing behavior on the control hand before each repellent dosage was tested. The protection efficacy (PE %) obtained from all replicates was calculated, according to the WHO guidelines[31] using this formula [drawing 1]
To evaluate the protection efficacy, volunteers applied increasing doses of the compounds to the skin on the back of their hands (30 cm^2, while the rest was covered with a rubber glove) and counted the number of mosquitoes attempting to bite; the solvent only was used on the control hand. The protection (percentage of repelled mosquitoes) was calculated as reported in the Material and Methods section.

Row | SMILES | Average PT >95% (% coefficient of variation) (Aedes albopictus [1]) | Estimated 100% PT (complete protection time, mean±SE) (Aedes albopictus [1]) [min] | Protection time PE% (Aedes albopictus [1]; 0.17mg/cm2, 0 min) [%] | Protection time PE% (Aedes albopictus [1]; 0.17mg/cm2, 1 h) [%] | Protection time PE% (Aedes albopictus [1]; 0.17mg/cm2, 2 h) [%] | Protection time PE% (Aedes albopictus [1]; 0.17mg/cm2, 3 h) [%] | Protection time PE% (Aedes albopictus [1]; 0.17mg/cm2, 4 h) [%] | Protection time PE% (Aedes albopictus [1]; 0.17mg/cm2, 5 h) [%] | Protection time PE% (Aedes albopictus [1]; 0.17mg/cm2, 6 h) [%] | Protection time PE% (Aedes albopictus [1]; 0.17mg/cm2, 7 h) [%] | Protection time PE% (Aedes albopictus [1]; 0.17mg/cm2, 8 h) [%] | other results
1 | CCCCCCCCCCCC1OCC(CO)O1 (mixture of isomers) [24a] | 0 min | – | – | – | – | – | – | – | – | – | – | –
2 | CC1(CO)COC(C)(C)OC1 [5b] | 0 min | – | – | – | – | – | – | – | – | – | – | repellent activity, in words (Aedes albopictus [1]): lack of activity
3 | CCCCCCCCCC1(C)OCC(CO)O1 (stereo not drawn) [22a] | 420 (3.5) min | 380 ± 105 | – | – | – | – | – | – | – | – | – | pest or weed control at 0.081 µg/cm2, 0.081 µg/cm2 (Aedes albopictus [2]; Aedes albopictus, topical, 0.081 µg/cm2, read-out: Protection efficacy PE%): 2.83%; pest or weed control at 0.17 µg/cm2, 0.17 µg/cm2 (Aedes albopictus [2]; Aedes albopictus, topical, 0.17 µg/cm2, read-out: Protection efficacy PE%): 32.6%; pest or weed control at 0.33 µg/cm2, 0.33 µg/cm2 (Aedes albopictus [2]; Aedes albopictus, topical, 0.33 µg/cm2, read-out: Protection efficacy PE%): 50%; pest or weed control at 0.5 µg/cm2, 0.5 µg/cm2 (Aedes albopictus [2]; Aedes albopictus, topical, 0.5 µg/cm2, read-out: Protection efficacy PE%): 37.5%; pest or weed control at 0.83 µg/cm2, 0.83 µg/cm2 (Aedes albopictus [2]; Aedes albopictus, topical, 0.83 µg/cm2, read-out: Protection efficacy PE%): 65.4%; pest or weed control at 1.7 µg/cm2, 1.7 µg/cm2 (Aedes albopictus [2]; Aedes albopictus, topical, 1.7 µg/cm2, read-out: Protection efficacy PE%): 94.2%; pest or weed control at 8.3 µg/cm2, 8.3 µg/cm2 (Aedes albopictus [2]; Aedes albopictus, topical, 8.3 µg/cm2, read-out: Protection efficacy PE%): 100%; pest or weed control at 16.7 µg/cm2, 16.7 µg/cm2 (Aedes albopictus [2]; Aedes albopictus, topical, 16.7 µg/cm2, read-out: Protection efficacy PE%): 100%; pest or weed control at 83.3 µg/cm2, 83.3 µg/cm2 (Aedes albopictus [2]; Aedes albopictus, topical, 83.3 µg/cm2, read-out: Protection efficacy PE%): 100%; Protection efficacy (dose to obtain complete protection (100%) from bite attempts) (Aedes albopictus [2]; applied on skin of volunteers, 3 min exposure): 8.3 μg/cm^2; pest or weed control at 0.17 mg/cm2, 0.17 mg/cm2 (Aedes albopictus [1]; 0.17mg/cm2, 1 h): 100%; pest or weed control at 0.17 mg/cm2, 0.17 mg/cm2 (Aedes albopictus [1]; 0.17mg/cm2, 2 h): 100%; pest or weed control at 0.17 mg/cm2, 0.17 mg/cm2 (Aedes albopictus [1]; 0.17mg/cm2, 3 h): 98.9%; pest or weed control at 0.17 mg/cm2, 0.17 mg/cm2 (Aedes albopictus [1]; 0.17mg/cm2, 4 h): 98.2%; pest or weed control at 0.17 mg/cm2, 0.17 mg/cm2 (Aedes albopictus [1]; 0.17mg/cm2, 5 h): 95.2%; pest or weed control at 0.17 mg/cm2, 0.17 mg/cm2 (Aedes albopictus [1]; 0.17mg/cm2, 6 h): 99.5%; pest or weed control at 0.17 mg/cm2, 0.17 mg/cm2 (Aedes albopictus [1]; 0.17mg/cm2, 7 h): 96.6%; pest or weed control at 0.17 mg/cm2, 0.17 mg/cm2 (Aedes albopictus [1]; 0.17mg/cm2, 8 h): 90%; Protection time (95% protection) (Aedes albopictus [1]): 7 h
4 | CCCCC(CC)C1OCC(CO)O1 (mixture of isomers) [10a] | 360 (56.8) min | – | 100 | 100 | 100 | 100 | 100 | 97.5 | 100 | 63.17 | – | –
5 | CC(C)(C)C1CCC2(CC1)OCC(CO)O2 (mixture of isomers) [19a] | 0 min | – | – | – | – | – | – | – | – | – | – | –
6 | CCCCCCCCCC1OCC(O)CO1 (stereo not drawn) [trans-18a.6] | – | – | – | – | – | – | – | – | – | – | – | repellent activity, in words (Aedes albopictus [1]): inactive as a repellent
7 | CC(C)c1ccc(C2OCC(CO)O2)cc1 (mixture of isomers) [21a] | 0 min | – | – | – | – | – | – | – | – | – | – | –
8 | CCCCCCCC1OCC(C)(CO)CO1 (mixture of isomers) [9b] | 420 (5.6) min | 120 ± 105 | 97.02 | 98.5 | – | 98.35 | 100 | 97.67 | 93.8 | 96.63 | 91.73 | –
9 | CC(C)CC1(CC(C)C)OCC(CO)O1 (racemic) [17a] | 300 (2.3) min | – | 100 | 100 | 100 | 100 | 98 | 98.39 | 92.05 | 74.4 | 43.92 | –
10 | CCCCCC1(CC)OCC(CO)O1 (mixture of isomers) [11a] | 240 (3.8) min | 345 ± 66 | 100 | 100 | 100 | 100 | 98.12 | 93.19 | 72.96 | – | – | –
11 | CCCC1(CCC)OCC(C)(CO)CO1 [7b] | 300 (1.4) min | 220 ± 87 | 100 | 99.45 | 100 | 99.21 | 98.74 | 98.42 | 84.33 | – | – | –
12 | CCC1(CO)COC(CC(C)C)(CC(C)C)OC1 [17c] | 480 (0) min | – | 98.72 | 97.92 | 98.68 | 100 | 98.44 | 98.08 | 98.53 | 100 | 100 | Protection time (95% protection) (Aedes albopictus [1]): 8 h
13 | CCCC1(CCC)OCC(CC)(CO)CO1 [7c] | 360 (3.3) min | 60 ± 34 | 99.35 | 94.12 | 97.7 | 98.08 | 99.4 | 91.72 | 97.22 | 94.29 | 94.44 | –
14 | CCCCCCCCC1OCC(CO)O1 (mixture of isomers) [13a] | 420 (4.7) min | 270 ± 77 | 99.47 | 100 | 100 | 99.41 | 100 | 97.22 | 99.06 | 96.82 | 82.75 | –
15 | CC1(CO)COC2(CCCCCCC2)OC1 [12b] | 420 (3.1) min | 240 ± 60 | – | – | – | – | – | – | – | – | – | pest or weed control at 0.17 mg/cm2, 0.17 mg/cm2 (Aedes albopictus [1]; 0.17mg/cm2, 1 h): 100%; pest or weed control at 0.17 mg/cm2, 0.17 mg/cm2 (Aedes albopictus [1]; 0.17mg/cm2, 2 h): 99.5%; pest or weed control at 0.17 mg/cm2, 0.17 mg/cm2 (Aedes albopictus [1]; 0.17mg/cm2, 3 h): 98.7%; pest or weed control at 0.17 mg/cm2, 0.17 mg/cm2 (Aedes albopictus [1]; 0.17mg/cm2, 4 h): 97.8%; pest or weed control at 0.17 mg/cm2, 0.17 mg/cm2 (Aedes albopictus [1]; 0.17mg/cm2, 5 h): 97.2%; pest or weed control at 0.17 mg/cm2, 0.17 mg/cm2 (Aedes albopictus [1]; 0.17mg/cm2, 6 h): 93.8%; pest or weed control at 0.17 mg/cm2, 0.17 mg/cm2 (Aedes albopictus [1]; 0.17mg/cm2, 7 h): 98.2%; pest or weed control at 0.17 mg/cm2, 0.17 mg/cm2 (Aedes albopictus [1]; 0.17mg/cm2, 8 h): 94.9%; Protection time (95% protection) (Aedes albopictus [1]): 7 h
16 | OCC1COC2(CCCCCCCCCCC2)O1 (racemic) [25a] | 0 min | – | – | – | – | – | – | – | – | – | – | –
17 | CC(C)=CCCC1(C)OCC(CO)O1 (mixture of isomers) [8a] | – | – | 100 | 100 | 100 | 100 | 100 | 99.39 | 100 | 97.44 | 84.95 | –
18 | CC1(CCc2ccccc2)OCC(CO)O1 (mixture of isomers) [20a] | 0 min | – | – | – | – | – | – | – | – | – | – | –
